Measured values from the supplement of paper PMC10307832.

Columns and labels:
Test in all cases: relative viability (nuclei count vs DMSO), 5 days (fraction); higher = more cells survive
[1] = system: PC-3 [JPC-3]
Summary of the method: (§1)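 Lung cancer cell lines were pin-tool dosed in 1536-well plates on the day after seeding, with either a lone drug or a fixed anchor-drug dose plus five library-drug doses (not always all listed) in √10 steps. Nuclei were counted on 4× images after 5 days. Relative viability is the ratio of treated-well to vehicle-well nuclei counts, with each value a median of duplicate plates.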

[2] = system: UMC-11
Summary of the method: as §1

[3] = system: HCC-15
Summary of the method: as §1

[4] = system: LC-2-ad
Summary of the method: as §1

[5] = system: NCI-H1666
Summary of the method: as §1

[6] = system: NCI-H1944
Summary of the method: as §1

[7] = system: NCI-H661
Summary of the method: as §1

[8] = system: HCC-78
Summary of the method: as §1

[9] = system: NCI-H838
Summary of the method: as §1

[10] = system: LXF-289
Summary of the method: as §1

[11] = system: NCI-H596
Summary of the method: as §1

[12] = system: LK-2
Summary of the method: as §1

[13] = system: SK-MES-1
Summary of the method: as §1

[14] = system: NCI-H358
Summary of the method: as §1

[15] = system: NCI-H2087
Summary of the method: as §1

[16] = system: NCI-H2342
Summary of the method: as §1

[17] = system: NCI-H322M
Summary of the method: as §1

[18] = system: LCLC-97TM1
Summary of the method: as §1

[19] = system: NCI-H650
Summary of the method: as §1

[20] = system: ChaGo-K-1
Summary of the method: as §1

[21] = system: NCI-H1651
Summary of the method: as §1

[22] = system: BEN
Summary of the method: as §1

[23] = system: LU99A
Summary of the method: as §1

`CC1(C)CCC(c2ccc(Cl)cc2)=C(CN2CCN(c3ccc(C(=O)NS(=O)(=O)c4ccc(N[C@H](CCN5CCOCC5)CSc5ccccc5)c(S(=O)(=O)C(F)(F)F)c4)cc3)CC2)C1` [Navitoclax] + COc1cc2c(Oc3ccc(NC(=O)C4(C(=O)Nc5ccc(F)cc5)CC4)cc3F)ccnc2cc1OCCCN1CCOCC1 [Foretinib] (partner 0.25 µM) gave a relative viability ([1]; first compound 0.005 µM) of 1.02, a relative viability ([1]; first compound 0.01581 µM) of 1.03 and a relative viability ([1]; first compound 0.05 µM) of 1.12. It also gave a relative viability ([1]; first compound 0.1581 µM) of 1.02, a relative viability ([1]; first compound 0.5 µM) of 1.06 and a relative viability ([2]; first compound 0.005 µM) of 0.976. For the same compound, the relative viability ([2]; first compound 0.01581 µM) was 1.14, the relative viability ([2]; first compound 0.05 µM) was 1.18 and the relative viability ([2]; first compound 0.1581 µM) was 0.937. It also gave a relative viability ([2]; first compound 0.5 µM) of 0.66, a relative viability ([3]; first compound 0.005 µM) of 1.01 and a relative viability ([3]; first compound 0.01581 µM) of 1.05. The relative viability ([3]; first compound 0.05 µM) was 0.977, the relative viability ([3]; first compound 0.1581 µM) was 0.982 and the relative viability ([3]; first compound 0.5 µM) was 0.918. For the same compound, the relative viability ([4]; first compound 0.005 µM) was 0.837, the relative viability ([4]; first compound 0.01581 µM) was 1.29 and the relative viability ([4]; first compound 0.05 µM) was 1.02. It also gave a relative viability ([4]; first compound 0.1581 µM) of 0.871, a relative viability ([4]; first compound 0.5 µM) of 0.887 and a relative viability ([5]; first compound 0.005 µM) of 0.941. For the same compound, the relative viability ([5]; first compound 0.01581 µM) was 1.04, the relative viability ([5]; first compound 0.05 µM) was 0.965 and the relative viability ([5]; first compound 0.1581 µM) was 0.998. It also gave a relative viability ([5]; first compound 0.5 µM) of 0.964, a relative viability ([6]; first compound 0.005 µM) of 0.872 and a relative viability ([6]; first compound 0.01581 µM) of 0.945. The relative viability ([6]; first compound 0.05 µM) was 0.745, the relative viability ([6]; first compound 0.1581 µM) was 0.851 and the relative viability ([6]; first compound 0.5 µM) was 0.741. It also gave a relative viability ([7]; first compound 0.005 µM) of 0.984, a relative viability ([7]; first compound 0.01581 µM) of 1.06 and a relative viability ([7]; first compound 0.05 µM) of 0.87. The relative viability ([7]; first compound 0.1581 µM) was 0.988, the relative viability ([7]; first compound 0.5 µM) was 1 and the relative viability ([8]; first compound 0.005 µM) was 0.596. The relative viability ([8]; first compound 0.01581 µM) was 0.663, the relative viability ([8]; first compound 0.1581 µM) was 0.591 and the relative viability ([8]; first compound 0.5 µM) was 0.595. For the same compound, the relative viability ([9]; first compound 0.005 µM) was 0.976, the relative viability ([9]; first compound 0.01581 µM) was 1.09 and the relative viability ([9]; first compound 0.05 µM) was 1.19. It also gave a relative viability ([9]; first compound 0.1581 µM) of 1.01, a relative viability ([9]; first compound 0.5 µM) of 1.03 and a relative viability ([10]; first compound 0.005 µM) of 1.05. For the same compound, the relative viability ([10]; first compound 0.01581 µM) was 0.981, the relative viability ([10]; first compound 0.05 µM) was 0.924 and the relative viability ([10]; first compound 0.1581 µM) was 0.93. For the same compound, the relative viability ([10]; first compound 0.5 µM) was 0.966, the relative viability ([11]; first compound 0.005 µM) was 1.08 and the relative viability ([11]; first compound 0.01581 µM) was 0.853. It also gave a relative viability ([11]; first compound 0.1581 µM) of 0.839, a relative viability ([11]; first compound 0.5 µM) of 0.917 and a relative viability ([12]; first compound 0.005 µM) of 1.22. For the same compound, the relative viability ([12]; first compound 0.01581 µM) was 1.15, the relative viability ([12]; first compound 0.05 µM) was 0.645 and the relative viability ([12]; first compound 0.1581 µM) was 1.24. It also gave a relative viability ([12]; first compound 0.5 µM) of 1.08, a relative viability ([13]; first compound 0.005 µM) of 0.817 and a relative viability ([13]; first compound 0.01581 µM) of 1.09. The relative viability ([13]; first compound 0.05 µM) was 0.916, the relative viability ([13]; first compound 0.1581 µM) was 0.895 and the relative viability ([13]; first compound 0.5 µM) was 1.04. For the same compound, the relative viability ([14]; first compound 0.005 µM) was 0.743, the relative viability ([14]; first compound 0.01581 µM) was 0.946 and the relative viability ([14]; first compound 0.05 µM) was 0.613. It also gave a relative viability ([14]; first compound 0.1581 µM) of 0.645, a relative viability ([14]; first compound 0.5 µM) of 0.728 and a relative viability ([15]; first compound 0.005 µM) of 1.07. It also gave a relative viability ([15]; first compound 0.01581 µM) of 1.08, a relative viability ([15]; first compound 0.1581 µM) of 0.953 and a relative viability ([15]; first compound 0.5 µM) of 1.07. The relative viability ([16]; first compound 0.005 µM) was 1.19, the relative viability ([16]; first compound 0.01581 µM) was 1.22 and the relative viability ([16]; first compound 0.05 µM) was 0.871. It also gave a relative viability ([16]; first compound 0.1581 µM) of 1.1, a relative viability ([16]; first compound 0.5 µM) of 1.16 and a relative viability ([17]; first compound 0.005 µM) of 1.03. It also gave a relative viability ([17]; first compound 0.01581 µM) of 1.19, a relative viability ([17]; first compound 0.05 µM) of 0.795 and a relative viability ([17]; first compound 0.1581 µM) of 0.992. For the same compound, the relative viability ([17]; first compound 0.5 µM) was 1.1, the relative viability ([18]; first compound 0.005 µM) was 0.972 and the relative viability ([18]; first compound 0.01581 µM) was 0.984. It also gave a relative viability ([18]; first compound 0.05 µM) of 0.831, a relative viability ([18]; first compound 0.1581 µM) of 0.985 and a relative viability ([18]; first compound 0.5 µM) of 0.921. The relative viability ([19]; first compound 0.005 µM) was 1.05, the relative viability ([19]; first compound 0.01581 µM) was 1.15 and the relative viability ([19]; first compound 0.05 µM) was 1. For the same compound, the relative viability ([19]; first compound 0.1581 µM) was 1.04, the relative viability ([19]; first compound 0.5 µM) was 1.07 and the relative viability ([20]; first compound 0.005 µM) was 1.04. It also gave a relative viability ([20]; first compound 0.01581 µM) of 0.94, a relative viability ([20]; first compound 0.05 µM) of 0.537 and a relative viability ([20]; first compound 0.1581 µM) of 0.9. The relative viability ([20]; first compound 0.5 µM) was 0.932, the relative viability ([21]; first compound 0.005 µM) was 0.681 and the relative viability ([21]; first compound 0.01581 µM) was 0.979. For the same compound, the relative viability ([21]; first compound 0.05 µM) was 0.442, the relative viability ([21]; first compound 0.1581 µM) was 0.809 and the relative viability ([21]; first compound 0.5 µM) was 0.847. It also gave a relative viability ([22]; first compound 0.005 µM) of 0.69, a relative viability ([22]; first compound 0.01581 µM) of 0.664 and a relative viability ([22]; first compound 0.05 µM) of 0.604. For the same compound, the relative viability ([22]; first compound 0.1581 µM) was 0.719, the relative viability ([22]; first compound 0.5 µM) was 0.114 and the relative viability ([23]; first compound 0.005 µM) was 0.796. It also gave a relative viability ([23]; first compound 0.01581 µM) of 0.886, a relative viability ([23]; first compound 0.05 µM) of 0.459 and a relative viability ([23]; first compound 0.1581 µM) of 0.804. The relative viability ([23]; first compound 0.5 µM) was 0.799.
